Columns and labels:
Format in all cases: cell-based, human
[1] = tested on: A549 lung cancer cells; assay: Alamar Blue proliferation assay, A549
Description: (§1) The inventors assessed the therapeutic effect of hsa-miR-126 for lung cancer by using 11 individual lung cancer cell lines. To measure cellular proliferation of lung cancer cells, the following non-small cell lung cancer (NSCLC) cells were used: cells derived from lung adenocarcinoma (A549, H1299, H522, H838, Calu-3, HCC827, HCC2935), cells derived from lung squamous cell carcinoma (H520, H226), cells derived from lung bronchioalveolar carcinoma (H1650), and cells derived from lung large cell carcinoma (H460). Synthetic hsa-miR-126 (Pre-miR™-hsa-miR-126, Ambion cat. no. AM17100) or negative control (NC) miRNA (Pre-miR™ microRNA Precursor Molecule-Negative Control #2; Ambion cat. no. AM17111) was delivered via lipid-based transfection into A549, H1299, H522, H838, Calu-3, HCC827, HCC2935, H520, H1650, and H460 cells, and via electroporation into H226 cells.
(§2) Lipid-based reverse transfections were carried out in triplicate according to a published protocol (Ovcharenko et al., 2005) and the following parameters: Cells (5,000-12,000 per 96 well), 0.1-0.2 μl Lipofectamine™ 2000 (cat. no. 11668-019, Invitrogen Corp., Carlsbad, Calif., USA) in 20 μl OptiMEM (Invitrogen), 30 nM final concentration of miRNA in 100 μl. Electroporation of H226 cells was carried out using the BioRad Gene Pulser Xcell™ instrument (BioRad Laboratories Inc., Hercules, Calif., USA) with the following settings: 5×10^6 cells with 5 μg miRNA in 200 μl OptiMEM (1.6 μM miRNA), square wave pulse at 250 V for 5 ms. Electroporated H226 cells were seeded at 7,000 cells per 96-well in a total volume of 100 μl. All cells except for Calu-3 cells were harvested 72 hours post transfection or electroporation for assessment of cellular proliferation. Calu-3 cells were harvested 10 days post transfection. Proliferation assays were performed using Alamar Blue (Invitrogen) following the manufacturer's instructions. As a control for inhibition of cellular proliferation, siRNA against the motor protein kinesin 11, also known as Eg5, was used. […]

[2] = tested on: H838 lung cancer cells; assay: Alamar Blue proliferation assay, H838; settings: relative to NC miRNA (100%)
Description: as §1, §2

[3] = tested on: HCC827 lung cancer cells; assay: Alamar Blue proliferation assay, HCC827; settings: relative to NC miRNA (100%)
Description: as §1, §2

[4] = tested on: Calu-3 lung cancer cells; assay: Alamar Blue proliferation assay, Calu-3
Description: as §1
Electroporation of H226 cells was carried out using the BioRad Gene Pulser Xcell™ instrument (BioRad Laboratories Inc., Hercules, Calif., USA) with the following settings: 5×10^6 cells with 5 μg miRNA in 200 μl OptiMEM (1.6 μM miRNA), square wave pulse at 250 V for 5 ms. Electroporated H226 cells were seeded at 7,000 cells per 96-well in a total volume of 100 μl. All cells except for Calu-3 cells were harvested 72 hours post transfection or electroporation for assessment of cellular proliferation. Calu-3 cells were harvested 10 days post transfection. Proliferation assays were performed using Alamar Blue (Invitrogen) following the manufacturer's instructions. As a control for inhibition of cellular proliferation, siRNA against the motor protein kinesin 11, also known as Eg5, was used. Eg5 is essential for cellular survival of most eukaryotic cells and a lack thereof leads to reduced cell proliferation and cell death (Weil et al., 2002). siEg5 was used in lipid-based transfection following the same experimental parameters that apply to miRNA. The inventors also used a DNA topoisomerase II inhibitor, etoposide, at a final concentration of 10 μM and 50 μM as an internal standard for the potency of miRNAs. […]

[5] = tested on: H226 lung cancer cells; assay: Alamar Blue proliferation assay, H226
Description: as §1
as §2, with “Electroporation of H226 cells was carried out using the BioRad Gene Pulser Xcell™ instrument (BioRad Laboratories Inc., Hercules, Calif., USA) with the following settings: 5×10^6 cells with 5 μg miRNA in 200 μl OptiMEM (1.6 μM miRNA), square wave pulse at 250 V for 5 ms.” left out, “used. Eg5 is essential for cellular survival of most eukaryotic cells and a lack thereof leads to reduced cell proliferation and cell death (Weil et al., 2002). siEg5 was used in lipid-based transfection following the same experimental parameters that apply to miRNA.” for “used.”

Molecule	% proliferation ([1]; A549, 50 μM, relative to NC miRNA (100%)) [%]	% proliferation ([1]; A549, relative to NC miRNA (100%)) [%]	% proliferation ([2]; H838, 30 nM) [%]	% proliferation ([2]; H838, 50 μM) [%]	% proliferation ([3]; HCC827, 30 nM) [%]	% proliferation ([3]; HCC827, 10 μM) [%]	% proliferation ([4]; Calu-3, 10 μM, relative to NC miRNA (100%)) [%]	% proliferation ([4]; Calu-3, relative to NC miRNA (100%)) [%]	% proliferation ([5]; H226, 50 μM, relative to NC miRNA (100%)) [%]	% proliferation ([5]; H226, relative to NC miRNA (100%)) [%]	% proliferation ([1]; A549, 30 nM, 72 h, relative to NC miRNA (100%)) [%]	% proliferation ([2]; H838, 30 nM, 72 h) [%]	% proliferation ([3]; HCC827, 30 nM, 72 h) [%]	% proliferation ([4]; Calu-3, 30 nM, 10 days, relative to NC miRNA (100%)) [%]	% proliferation ([5]; H226, 30 nM, electroporation, 72 h, relative to NC miRNA (100%)) [%]
COc1cc([C@@H]2c3cc4c(cc3[C@@H](O[C@@H]3O[C@@H]5CO[C@@H](C)O[C@H]5[C@H](O)[C@H]3O)[C@H]3COC(=O)[C@H]23)OCO4)cc(OC)c1O [etoposide]	42.18	49.13	89.71	36.97	82.53	98.95	20.81	13.53	9.33	28.17					
hsa-miR-126 (UCGUACCGUGAGUAAUAAUGC; synthetic pre-miR form, further chemistry not given here) [Synthetic hsa-miR-126 (Pre-miR™-hsa-miR-126, Ambion cat. no. AM17100)]											84.30	74.05	84.31	65.05	92.09
